The results in this text go back to ChEMBL document CHEMBL5143515, “Identification of new halogen-containing 2,4-diphenyl indenopyridin-5-one derivative as a boosting agent for the anticancer responses of clinically available topoisomerase inhibitors” (Eur J Med Chem, 2022).

Data set [1] can be described thus: Toxicity in mouse assessed as increase in d red cell distribution width at 4 mg/kg administered in combination with 2 mg/kg etoposide. In kind it is organism-based. The note with it: in vivo.
The nature of data set [2]: Cytotoxicity against human MRC5 cells after 72 hrs by EZ-Cytox colorimetric assay. In kind it is toxicity, cell-based.
For data set [3], the system named is HeLa. The data set is described as follows: Antiproliferative activity against human HeLa cells after 72 hrs by EZ-Cytox colorimetric assay. In kind it is functional, cell-based.
Data set [4] addresses T1, DNA topoisomerase 1 (Homo sapiens) (UniProt P11387).
T1 sequence (whole entry): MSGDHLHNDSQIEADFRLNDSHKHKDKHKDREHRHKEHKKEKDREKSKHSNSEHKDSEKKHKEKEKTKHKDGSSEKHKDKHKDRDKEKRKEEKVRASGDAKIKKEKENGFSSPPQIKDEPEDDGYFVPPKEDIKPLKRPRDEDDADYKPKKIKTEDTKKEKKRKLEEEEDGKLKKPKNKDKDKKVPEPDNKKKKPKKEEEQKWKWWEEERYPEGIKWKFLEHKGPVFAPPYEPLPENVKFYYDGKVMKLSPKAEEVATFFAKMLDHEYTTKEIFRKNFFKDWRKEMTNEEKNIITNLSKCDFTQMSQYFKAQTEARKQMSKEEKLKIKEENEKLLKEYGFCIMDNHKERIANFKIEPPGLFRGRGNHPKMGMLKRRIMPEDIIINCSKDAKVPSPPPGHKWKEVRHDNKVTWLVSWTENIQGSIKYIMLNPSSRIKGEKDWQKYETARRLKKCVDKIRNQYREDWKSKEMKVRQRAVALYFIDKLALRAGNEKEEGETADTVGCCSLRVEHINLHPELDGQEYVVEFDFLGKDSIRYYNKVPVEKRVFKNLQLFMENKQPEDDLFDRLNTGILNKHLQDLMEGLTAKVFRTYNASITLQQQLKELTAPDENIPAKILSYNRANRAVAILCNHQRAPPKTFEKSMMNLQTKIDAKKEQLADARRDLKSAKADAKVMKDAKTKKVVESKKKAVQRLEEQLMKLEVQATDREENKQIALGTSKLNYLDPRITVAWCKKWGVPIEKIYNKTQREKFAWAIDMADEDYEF
Put plainly: Inhibition of recombinant human topoisomerase 1 assessed as relaxation of supercoiled plasmid pBR322 DNA at 20 uM by agarose gel electrophoresis (reference value: 40.4%).

Data set [5] in a line: Cytotoxicity against mouse M2-10B4 cells after 72 hrs by EZ-Cytox colorimetric assay. It is filed as toxicity, cell-based.
The subject of data set [6] is HCT-15. Put plainly: Induction of apoptosis in human HCT-15 cells assessed as change in c-PARP level at 2 to 5 uM in presence of 1 nM camptothecin and measured by Western blot analysis. It is filed as functional, cell-based. The conditions noted are these: dose 2-5 µM. In general terms: Immunoblotting shows a protein as a band on a membrane.
Data set [7] has as its system HCT-15. Put plainly: Induction of apoptosis in human HCT-15 cells assessed as change in c-caspase 7 level at 2 to 5 uM in presence of 0.2 uM etoposide and measured by Western blot analysis. It is filed as functional, cell-based. The conditions noted are these: dose 2-5 µM.
Data set [8] is described as follows: Genotoxicity in human HCT-15 cells assessed as production of fragmented DNA tails at 2 to 5 uM and measured in presence of 0.2 uM etoposide by comet assay. It is filed as toxicity, cell-based. The note with it: hct-15, 5 µM, dose 2-5 µM.
Data set [9] concerns the target DNA topoisomerase 2-alpha (Homo sapiens) (UniProt P11388). The data set is described as follows: Inhibition of recombinant human topoisomerase 2alpha assessed as relaxation of supercoiled plasmid pBR322 DNA at 100 uM by agarose gel electrophoresis (reference value: 82.2%).
The test system of data set [10] is HCT-15. The data set is described as follows: Antiproliferative activity against human HCT-15 cells after 72 hrs by EZ-Cytox colorimetric assay. In kind it is functional, cell-based. The conditions noted are these: HCT-15, 72 h.
Data set [11] relates to Calf thymus DNA. Put plainly: Binding affinity to calf thymus DNA assessed as DNA intercalation by measuring Stem-Volmer quenching constant at 0.01 to 0.1 uM by Hoechst displacement assay. In kind it is nucleic-acid assay. The conditions noted are these: Bos taurus; dose 0.01-0.1 µM.
The nature of data set [12]: Toxicity in mouse assessed as reduction in number of absolute neutrophil count at 4 mg/kg in presence of 2 mg/kg etoposide. It is filed as organism-based. The conditions noted are these: in vivo.
For data set [13], the target named is T1, DNA topoisomerase 1 (Homo sapiens). The data set is described as follows: Catalytic inhibitor of non-intercalative topoisomerase 1 (unknown origin) assessed as binding to minor groove at 100 to 500 uM measured by cleavage complex assay. The conditions noted are these: dose 100-500 µM.

Molecules are shown by their SMILES. The source made the active and inactive calls. No cut-off for these calls is given here.

Chain of DNA topoisomerase 2-alpha (Homo sapiens) (P11388 whole entry): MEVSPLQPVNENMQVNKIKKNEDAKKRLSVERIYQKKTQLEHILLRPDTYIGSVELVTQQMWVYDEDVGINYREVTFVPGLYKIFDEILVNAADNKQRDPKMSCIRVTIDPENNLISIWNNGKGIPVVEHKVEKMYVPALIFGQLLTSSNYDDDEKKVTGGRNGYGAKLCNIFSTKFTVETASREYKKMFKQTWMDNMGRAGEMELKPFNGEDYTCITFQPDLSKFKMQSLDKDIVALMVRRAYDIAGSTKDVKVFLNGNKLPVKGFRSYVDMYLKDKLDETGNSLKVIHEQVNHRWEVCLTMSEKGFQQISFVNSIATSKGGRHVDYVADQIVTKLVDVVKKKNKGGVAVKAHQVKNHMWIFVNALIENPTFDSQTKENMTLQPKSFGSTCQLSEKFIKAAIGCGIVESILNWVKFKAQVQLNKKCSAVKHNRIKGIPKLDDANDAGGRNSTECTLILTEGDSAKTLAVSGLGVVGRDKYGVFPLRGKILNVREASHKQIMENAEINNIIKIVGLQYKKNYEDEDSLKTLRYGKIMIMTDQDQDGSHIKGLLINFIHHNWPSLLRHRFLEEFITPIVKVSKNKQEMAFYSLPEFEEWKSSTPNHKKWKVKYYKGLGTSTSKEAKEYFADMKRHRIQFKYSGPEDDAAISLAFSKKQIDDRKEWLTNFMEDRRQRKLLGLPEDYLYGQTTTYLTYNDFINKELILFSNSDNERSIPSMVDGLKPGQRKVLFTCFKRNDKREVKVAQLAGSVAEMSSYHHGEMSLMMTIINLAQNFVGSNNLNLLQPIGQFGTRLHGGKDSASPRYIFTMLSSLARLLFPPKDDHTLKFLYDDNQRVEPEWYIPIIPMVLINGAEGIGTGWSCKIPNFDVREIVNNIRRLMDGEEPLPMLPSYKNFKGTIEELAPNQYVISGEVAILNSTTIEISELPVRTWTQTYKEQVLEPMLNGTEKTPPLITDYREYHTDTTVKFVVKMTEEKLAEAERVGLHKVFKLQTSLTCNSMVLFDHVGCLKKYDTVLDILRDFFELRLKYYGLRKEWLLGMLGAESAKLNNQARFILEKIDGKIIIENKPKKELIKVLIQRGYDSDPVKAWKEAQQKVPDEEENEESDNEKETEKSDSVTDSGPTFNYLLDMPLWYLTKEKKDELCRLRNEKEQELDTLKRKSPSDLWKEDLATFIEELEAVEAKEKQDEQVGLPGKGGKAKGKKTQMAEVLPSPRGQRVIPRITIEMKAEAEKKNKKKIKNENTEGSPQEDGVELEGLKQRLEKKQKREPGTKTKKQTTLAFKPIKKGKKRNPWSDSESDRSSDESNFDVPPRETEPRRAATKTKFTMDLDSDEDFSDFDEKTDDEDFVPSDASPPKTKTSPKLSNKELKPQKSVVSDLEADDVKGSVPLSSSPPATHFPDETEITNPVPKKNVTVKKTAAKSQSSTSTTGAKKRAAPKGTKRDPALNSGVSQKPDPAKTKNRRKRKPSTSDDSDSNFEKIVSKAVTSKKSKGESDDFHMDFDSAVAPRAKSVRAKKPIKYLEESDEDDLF

As usually defined, the IC50 is the point on the concentration scale where inhibition reaches its midpoint. The low end stands for higher potency, the high end for lower potency. In general, inhibition refers to the change of the read-out against control, counted positive when it falls. On to `O=C1c2ccccc2-c2nc(-c3ccc(Br)cc3)cc(-c3ccccc3)c21`, for which the Activity entry in data set [1], in data set [8] and in data set [12] was “Non-Toxic” each time. For the same molecule, the IC50 at 72 h in data set [2] and in [5] was more than 10 µM each time. Besides, the IC50 was more than 50 µM in data set [3] and 7.84 µM in data set [10]. In addition, the inhibition in [4] amounted to 1.8%; in data set [9], 85.8%. The outcome in [6] and in data set [7] was Active. For the same molecule, in data set [11], the KSV is 2.09 10^6/M. In [13], the inhibition result was “Active”.
